Results reported in PubChem BioAssay AID2060485 (Molecular Pharmacology Branch, DTP, NCI, 2025).
pIC50: −log10 of the molar value.

Tested on: A375 multi-cell spheroids with HUVEC/MSC, viability
Assay: Anticancer human tumor A375 cell line growth inhibition [GQUAD];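 further: spheroids exposed to compounds for seven days before readout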
Settings: for pIC50: curve of first compound; for viability, T/C: stronger effect = lower value
Method in brief: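 Multi-cell-type spheroids of tumor cells with HUVEC and mesenchymal stem cells, treated with drug combinations. Concentrations descend in half-log steps from near clinical Cmax, or from 10 microM where Cmax is unknown; viability read-out.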

[1] = second compound 0.0316 µM, first compound 0.0316 µM
[2] = second compound 0.0316 µM, first compound 0.1 µM
[3] = second compound 0.0316 µM, first compound 0.316 µM
[4] = second compound 0.0316 µM, first compound 1 µM
[5] = second compound 0.0316 µM, first compound 3.16 µM
[6] = second compound 0.0316 µM, first compound 10 µM
[7] = second compound 0.1 µM, first compound 0.0316 µM
[8] = second compound 0.1 µM, first compound 0.1 µM
[9] = second compound 0.1 µM, first compound 0.316 µM
[10] = second compound 0.1 µM, first compound 1 µM
[11] = second compound 0.1 µM, first compound 3.16 µM
[12] = second compound 0.1 µM, first compound 10 µM
[13] = second compound 0.316 µM, first compound 0.0316 µM
[14] = second compound 0.316 µM, first compound 0.1 µM
[15] = second compound 0.316 µM, first compound 0.316 µM
[16] = second compound 0.316 µM, first compound 1 µM
[17] = second compound 0.316 µM, first compound 3.16 µM
[18] = second compound 0.316 µM, first compound 10 µM
[19] = second compound 1 µM, first compound 0.0316 µM
[20] = second compound 1 µM, first compound 0.1 µM
[21] = second compound 1 µM, first compound 0.316 µM
[22] = second compound 1 µM, first compound 1 µM
[23] = second compound 1 µM, first compound 3.16 µM
[24] = second compound 1 µM, first compound 10 µM
[25] = second compound 3.16 µM, first compound 0.0316 µM
[26] = second compound 3.16 µM, first compound 0.1 µM
[27] = second compound 3.16 µM, first compound 0.316 µM
[28] = second compound 3.16 µM, first compound 1 µM
[29] = second compound 3.16 µM, first compound 3.16 µM
[30] = second compound 3.16 µM, first compound 10 µM
[31] = second compound 10 µM, first compound 0.0316 µM
[32] = second compound 10 µM, first compound 0.1 µM
[33] = second compound 10 µM, first compound 0.316 µM
[34] = second compound 10 µM, first compound 1 µM
[35] = second compound 10 µM, first compound 3.16 µM
[36] = second compound 10 µM, first compound 10 µM
[37] = second compound 0.0316 µM, first compound 0.000999 µM
[38] = second compound 0.0316 µM, first compound 0.00316 µM
[39] = second compound 0.0316 µM, first compound 0.00999 µM
[40] = second compound 0.0316 µM, first compound 0.0999 µM
[41] = second compound 0.1 µM, first compound 0.000999 µM
[42] = second compound 0.1 µM, first compound 0.00316 µM
[43] = second compound 0.1 µM, first compound 0.00999 µM
[44] = second compound 0.1 µM, first compound 0.0999 µM
[45] = second compound 0.316 µM, first compound 0.000999 µM
[46] = second compound 0.316 µM, first compound 0.00316 µM
[47] = second compound 0.316 µM, first compound 0.00999 µM
[48] = second compound 0.316 µM, first compound 0.0999 µM
[49] = second compound 1 µM, first compound 0.000999 µM
[50] = second compound 1 µM, first compound 0.00316 µM
[51] = second compound 1 µM, first compound 0.00999 µM
[52] = second compound 1 µM, first compound 0.0999 µM
[53] = second compound 3.16 µM, first compound 0.000999 µM
[54] = second compound 3.16 µM, first compound 0.00316 µM
[55] = second compound 3.16 µM, first compound 0.00999 µM
[56] = second compound 3.16 µM, first compound 0.0999 µM
[57] = second compound 10 µM, first compound 0.000999 µM
[58] = second compound 10 µM, first compound 0.00316 µM
[59] = second compound 10 µM, first compound 0.00999 µM
[60] = second compound 10 µM, first compound 0.0999 µM

Structure (SMILES): C=CC(=O)N1CCN(c2nc(=O)n(-c3c(C)ccnc3C(C)C)c3nc(-c4c(O)cccc4F)c(F)cc23)C(C)C1 (stereo not drawn) + CN(C)c1ccc(Nc2c3ccc(NC(=O)CCN4CCCC4)cc3nc3cc(NC(=O)CCN4CCCC4)ccc23)cc1
- pIC50 (second compound 0.0316 µM): < 5.00
- pIC50 (second compound 0.1 µM): < 5.00
- pIC50 (second compound 0.316 µM): < 5.00
- pIC50 (second compound 1 µM): < 5.00
- pIC50 (second compound 3.16 µM): < 5.00
- pIC50 (second compound 10 µM): < 5.00
- viability, T/C [1]: 107%
- viability, T/C [2]: 95.4%
- viability, T/C [3]: 94.9%
- viability, T/C [4]: 95.1%
- viability, T/C [5]: 110%
- viability, T/C [6]: 123%
- viability, T/C [7]: 108%
- viability, T/C [8]: 96.8%
- viability, T/C [9]: 103%
- viability, T/C [10]: 95.4%
- viability, T/C [11]: 98.6%
- viability, T/C [12]: 119%
- viability, T/C [13]: 95.1%
- viability, T/C [14]: 94.7%
- viability, T/C [15]: 90.6%
- viability, T/C [16]: 101%
- viability, T/C [17]: 101%
- viability, T/C [18]: 128%
- viability, T/C [19]: 97.7%
- viability, T/C [20]: 92.2%
- viability, T/C [21]: 94.8%
- viability, T/C [22]: 102%
- viability, T/C [23]: 109%
- viability, T/C [24]: 133%
- viability, T/C [25]: 98.7%
- viability, T/C [26]: 90.7%
- viability, T/C [27]: 92.3%
- viability, T/C [28]: 93.4%
- viability, T/C [29]: 103%
- viability, T/C [30]: 126%
- viability, T/C [31]: 99.9%
- viability, T/C [32]: 92.2%
- viability, T/C [33]: 99.8%
- viability, T/C [34]: 100%
- viability, T/C [35]: 108%
- viability, T/C [36]: 107%

Structure (SMILES): CC[C@@]1(O)C(=O)OCc2c1cc1n(c2=O)Cc2cc3c(CN(C)C)c(O)ccc3nc2-1 + CN(C)c1ccc(Nc2c3ccc(NC(=O)CCN4CCCC4)cc3nc3cc(NC(=O)CCN4CCCC4)ccc23)cc1
- pIC50 (second compound 0.0316 µM): 7.35
- pIC50 (second compound 0.1 µM): 7.34
- pIC50 (second compound 0.316 µM): 7.40
- pIC50 (second compound 1 µM): 7.32
- pIC50 (second compound 3.16 µM): 7.31
- pIC50 (second compound 10 µM): 7.34
- viability, T/C [37]: 104%
- viability, T/C [38]: 107%
- viability, T/C [39]: 104%
- viability, T/C [1]: 63.4%
- viability, T/C [40]: 18.5%
- viability, T/C [3]: 9.04%
- viability, T/C [41]: 112%
- viability, T/C [42]: 105%
- viability, T/C [43]: 96.2%
- viability, T/C [7]: 64.2%
- viability, T/C [44]: 20.4%
- viability, T/C [9]: 10.9%
- viability, T/C [45]: 101%
- viability, T/C [46]: 107%
- viability, T/C [47]: 108%
- viability, T/C [13]: 58%
- viability, T/C [48]: 19.8%
- viability, T/C [15]: 10.9%
- viability, T/C [49]: 114%
- viability, T/C [50]: 106%
- viability, T/C [51]: 102%
- viability, T/C [19]: 67%
- viability, T/C [52]: 18.9%
- viability, T/C [21]: 9.06%
- viability, T/C [53]: 103%
- viability, T/C [54]: 102%
- viability, T/C [55]: 102%
- viability, T/C [25]: 68.8%
- viability, T/C [56]: 20.6%
- viability, T/C [27]: 12.7%
- viability, T/C [57]: 102%
- viability, T/C [58]: 103%
- viability, T/C [59]: 107%
- viability, T/C [31]: 63.2%
- viability, T/C [60]: 22.4%
- viability, T/C [33]: 9.58%

Structure (SMILES): CCc1c2c(nc3ccc(O)cc13)-c1cc3c(c(=O)n1C2)COC(=O)[C@]3(O)CC + CN(C)c1ccc(Nc2c3ccc(NC(=O)CCN4CCCC4)cc3nc3cc(NC(=O)CCN4CCCC4)ccc23)cc1
- pIC50 (second compound 0.0316 µM): > 9.00
- pIC50 (second compound 0.1 µM): > 9.00
- pIC50 (second compound 0.316 µM): > 9.00
- pIC50 (second compound 1 µM): > 9.00
- pIC50 (second compound 3.16 µM): > 9.00
- pIC50 (second compound 10 µM): > 9.00
- viability, T/C [37]: 41.2%
- viability, T/C [38]: 16.1%
- viability, T/C [39]: 10.6%
- viability, T/C [1]: 15%
- viability, T/C [40]: 5.91%
- viability, T/C [3]: 0.85%
- viability, T/C [41]: 39%
- viability, T/C [42]: 14.4%
- viability, T/C [43]: 11.6%
- viability, T/C [7]: 13.6%
- viability, T/C [44]: 5.7%
- viability, T/C [9]: 0.92%
- viability, T/C [45]: 40.8%
- viability, T/C [46]: 14.2%
- viability, T/C [47]: 11.6%
- viability, T/C [13]: 15.8%
- viability, T/C [48]: 5.11%
- viability, T/C [15]: 1.17%
- viability, T/C [49]: 44.3%
- viability, T/C [50]: 17.9%
- viability, T/C [51]: 12.2%
- viability, T/C [19]: 15.3%
- viability, T/C [52]: 5%
- viability, T/C [21]: 0.92%
- viability, T/C [53]: 45.6%
- viability, T/C [54]: 14.8%
- viability, T/C [55]: 10.9%
- viability, T/C [25]: 12.6%
- viability, T/C [56]: 6.28%
- viability, T/C [27]: 1.02%
- viability, T/C [57]: 46.9%
- viability, T/C [58]: 18.2%
- viability, T/C [59]: 10.9%
- viability, T/C [31]: 13%
- viability, T/C [60]: 6.82%
- viability, T/C [33]: 0.96%

Structure (SMILES): COc1cc(C2c3cc4c(cc3C(OC3OC5COC(C)OC5C(O)C3O)C3COC(=O)C23)OCO4)cc(OC)c1O (stereo not drawn) + CN(C)c1ccc(Nc2c3ccc(NC(=O)CCN4CCCC4)cc3nc3cc(NC(=O)CCN4CCCC4)ccc23)cc1
- pIC50 (second compound 0.0316 µM): 5.99
- pIC50 (second compound 0.1 µM): 6.02
- pIC50 (second compound 0.316 µM): 5.92
- pIC50 (second compound 1 µM): 5.85
- pIC50 (second compound 3.16 µM): 5.80
- pIC50 (second compound 10 µM): 5.84
- viability, T/C [1]: 99%
- viability, T/C [2]: 105%
- viability, T/C [3]: 75.3%
- viability, T/C [4]: 52.5%
- viability, T/C [5]: 27.5%
- viability, T/C [6]: 19%
- viability, T/C [7]: 109%
- viability, T/C [8]: 103%
- viability, T/C [9]: 71.6%
- viability, T/C [10]: 50.2%
- viability, T/C [11]: 31.1%
- viability, T/C [12]: 18%
- viability, T/C [13]: 107%
- viability, T/C [14]: 107%
- viability, T/C [15]: 74.2%
- viability, T/C [16]: 55.1%
- viability, T/C [17]: 33%
- viability, T/C [18]: 18.2%
- viability, T/C [19]: 117%
- viability, T/C [20]: 105%
- viability, T/C [21]: 86.3%
- viability, T/C [22]: 58.6%
- viability, T/C [23]: 30.9%
- viability, T/C [24]: 18.1%
- viability, T/C [25]: 103%
- viability, T/C [26]: 103%
- viability, T/C [27]: 84.5%
- viability, T/C [28]: 60.1%
- viability, T/C [29]: 35.2%
- viability, T/C [30]: 18.8%
- viability, T/C [31]: 105%
- viability, T/C [32]: 99.9%
- viability, T/C [33]: 80.6%
- viability, T/C [34]: 56.9%
- viability, T/C [35]: 35.9%
- viability, T/C [36]: 20.1%
